This note sets out measurements from ChEMBL document CHEMBL3045661, “SYNTHESIS AND CYTOTOXIC PROPERTIES OF NITRO- AND AMINOCHALCONES” (Med Chem Res, 2005).

One experiment deals with B16. In words: Cytotoxicity against Mus musculus (mouse) B16 cells after 3 days by MTT assay. Format: functional, cell-based. Conditions: B16, 72 h.
For another experiment, the system named is HeLa. In words: Cytotoxicity against Homo sapiens (human) HeLa cells. Format: functional, cell-based.

As for `COc1ccc(OC)c(C(=O)/C=C/c2ccc(N)cc2)c1`, the IC50 (usually the concentration at which inhibition is half-maximal) in the experiment on B16 is more than 100 µM. For the compound `COc1ccc(C(=O)/C=C/c2cc(OC)c(OC)c(OC)c2)cc1N`, inhibition in the experiment with B16 was half-maximal at 67 µM (IC50). In the case of `COc1ccc(/C=C/C(=O)c2cc(OC)c(OC)c(OC)c2)cc1[N+](=O)[O-]`, the IC50 in the experiment with B16 was more than 100 µM. The compound `COc1ccc(/C=C/C(=O)c2ccc(OC)c(N)c2)cc1` yielded an IC50 with B16 of 43 µM. On the same count and under the same terms, in the case of `COc1ccc(C(=O)/C=C/c2ccc(OC)c(OC)c2)cc1N` it was 18 µM; in that of `COc1ccc(OC)c(/C=C/C(=O)c2ccc(OC)c([N+](=O)[O-])c2)c1`, 13 µM.

`COc1ccc(/C=C/C(=O)c2cc(OC)c(OC)c(OC)c2)cc1N` displayed an IC50 in the experiment with B16 of 0.24 µM.

Compound `COc1ccc(OC)c(C(=O)/C=C/c2ccc(OC)c([N+](=O)[O-])c2)c1` displayed an IC50 with B16 of more than 100 µM. As for `COc1ccc(C(=O)/C=C/c2ccccc2)cc1[N+](=O)[O-]`, the IC50 with B16 is more than 100 µM. In the experiment on B16, `COc1cccc(/C=C/C(=O)c2ccc(OC)c(N)c2)c1` registered an IC50 of 33 µM. As for `COc1cc(C(=O)/C=C/c2ccc(N)cc2)cc(OC)c1OC`, the concentration for half-maximal inhibition (IC50) in the experiment on B16 is 30 µM; in the experiment on HeLa, 0.48 µM. `COc1ccc(/C=C/C(=O)c2ccc(OC)c([N+](=O)[O-])c2)cc1`: in the experiment on B16, the IC50 is more than 100 µM. On the same count and under the same terms, to `COc1cc(/C=C/C(=O)c2ccc(OC)c([N+](=O)[O-])c2)cc(OC)c1` belongs 5.6 µM. Same read-out and setting: in the case of `COc1ccc(C(=O)/C=C/c2cc(OC)c(OC)c(OC)c2)cc1[N+](=O)[O-]` it was more than 100 µM; in that of `COc1ccc(OC)c(C(=O)/C=C/c2ccc([N+](=O)[O-])cc2)c1`, more than 100 µM. As to `COc1cccc(/C=C/C(=O)c2ccc(OC)c([N+](=O)[O-])c2)c1`, in the experiment with B16, the IC50 is more than 100 µM.

As for `COc1ccc(OC)c(C(=O)/C=C/c2ccc(OC)c(N)c2)c1`, the IC50 with B16 is 2 µM. Turning to `COc1ccc(OC)c(/C=C/C(=O)c2ccc(OC)c(N)c2)c1`, half-maximal inhibition in the experiment with B16 (IC50) was put at 5.6 µM.

Turning to `COc1cc(C(=O)/C=C/c2ccc([N+](=O)[O-])cc2)cc(OC)c1OC`, the half-inhibitory concentration (IC50) with B16 was more than 100 µM; with HeLa, 73 µM.

In the experiment with B16, `COc1ccc(/C=C/C(=O)c2ccc(OC)c([N+](=O)[O-])c2)cc1OC` gave a half-maximal inhibitory concentration (IC50) of more than 100 µM. The same measure, in the same setting: in the case of `COc1cc(/C=C/C(=O)c2ccc(OC)c(N)c2)cc(OC)c1` it was 8.8 µM; in that of `COc1ccc(C(=O)/C=C/c2ccccc2)cc1N`, more than 100 µM.
